# Measured values published in patent US8329675B2, “Inhibitors of fatty acid amide hydrolase” (Infinity Pharmaceuticals, Inc., priority 2006, dated 2012).
# Target: T1, rat FAAH (Rattus norvegicus, UniProt P97612)
# T1 construct: Five rat livers are homogenized in five fold volume with ice cold Tris; from tissue; host or cells: rat liver; 40,000 g membrane pellet solubilised in 1% Triton X-100
# T1 sequence (P97612 1-579): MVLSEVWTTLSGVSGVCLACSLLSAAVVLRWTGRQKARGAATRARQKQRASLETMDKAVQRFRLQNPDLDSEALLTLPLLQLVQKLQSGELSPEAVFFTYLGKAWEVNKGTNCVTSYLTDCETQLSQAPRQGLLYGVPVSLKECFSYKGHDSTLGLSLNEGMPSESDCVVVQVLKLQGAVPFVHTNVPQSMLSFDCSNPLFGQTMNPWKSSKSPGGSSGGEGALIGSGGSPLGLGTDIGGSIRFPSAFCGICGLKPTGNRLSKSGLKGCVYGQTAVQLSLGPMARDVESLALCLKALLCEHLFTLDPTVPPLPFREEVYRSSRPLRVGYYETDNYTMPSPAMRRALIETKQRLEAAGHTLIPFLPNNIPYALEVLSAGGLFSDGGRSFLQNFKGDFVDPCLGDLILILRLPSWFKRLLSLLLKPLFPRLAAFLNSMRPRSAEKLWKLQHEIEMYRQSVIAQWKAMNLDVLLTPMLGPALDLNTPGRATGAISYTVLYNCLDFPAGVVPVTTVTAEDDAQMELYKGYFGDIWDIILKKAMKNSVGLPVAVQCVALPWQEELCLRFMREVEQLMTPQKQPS
# Test: Rat FAAH biochemical inhibition assay (AMC arachidonoyl amide fluorescence)
# Description: The following assays may be used to determine the inhibition of FAAH by the compounds of the present invention: (1) a fluorescence-based assay for fatty acid amide hydrolase compatible with high-throughput screening as described in Manjunath et al., Analytical Biochemistry (2005) 343:143-151; and (2) a high-throughput screening for the discovery of inhibitors of fatty acid amide hydrolase using a microsome-based fluorescent assay. Wang et al., Biomolecular Screening (2006) 1-9.
# Rat FAAH Preparation: Five rat livers are homogenized in five fold volume with ice cold Tris (20 mM pH 8.0) and 0.32 M Sucrose solution via an Ultra Turrax T25 homogenizer. All subsequent preparation steps are carried out at 4° C. The homogenate is centrifuged at 6000 g, for 20 minutes and the pellet, containing nuclear debris and mitochondria is discarded. The supernatant is centrifuged at 40,000 g for 30 minutes. […]
# Rat FAAH Biochemical Inhibition Assay; Materials and methods: Rat FAAH biochemical assays are carried out in a 96 well flat bottom black non-treated polystyrene plates (Corning Costar Catalogue #3915). […] FAAH substrate—AMC Arachidonoyl Amide (Cayman Chemicals Company, Catalogue #10005098) The reaction is read in an Envision microtiter plate reader [Excitation filter 355 nm (40 nm bandpass); Emmision filter 460 nm (25 nm bandpass)]. The raw fluorescence is plotted on the y axis and the inhibitor concentration on the x axis to give a dose response inhibition curve. […]
# Rat FAAH Biochemical Inhibition Assay; Experimental Protocol: The principle of this assay is the hydrolysis of AMC-Arichodonoyl, a fluorescent analogue of Anandamide, which results in the formation of Arachidonic acid and AMC. The formation of AMC results in an increase in fluorescence (see, for example, Manjunath et al., Analytical Biochemistry (2005) 343:143-151; and Wang et al., Bimolecular Screening (2006) 1-9).
# A 0.49 mg/ml Rat liver FAAH solution is made up in FAAH reaction buffer, and 78 ul pipetted into a 96 well plate. […] The microtiter plate is read in the envision plate reader. […]
Compound,"Ki (Table 1, rat FAAH (asterisk)) [nM]","Ki (Table 2, rat FAAH (asterisk)) [nM]"
OB(O)c1cc2ccccc2s1 [Compound I-127],10 to 1000,–
CCCCCCOc1ccc(B(O)O)cc1 [Compound I-130],10 to 1000,–
CCCCOc1cccc(B(O)O)c1 [II-315],–,10 to 1000
